ChEMBL document CHEMBL1146837, “Effects of fluorine substitution of cytosine analogues on the binding affinity to HIV-1 reverse transcriptase” (Bioorg Med Chem Lett, 2004)

What was measured:
Format in all cases: functional
[1] = biological target: Human immunodeficiency virus type 1 reverse transcriptase (Human immunodeficiency virus 1) (UniProt Q72547); assay: Efficiency of incorporation into a DNA primer directed by a DNA template at the active site of HIV-1 reverse transcriptase
[2] = biological target: Human immunodeficiency virus type 1 reverse transcriptase (Human immunodeficiency virus 1) (UniProt Q72547); assay: Rate of incorporation into a DNA primer directed by a DNA template at the active site of HIV-1 reverse transcriptase
[3] = biological target: Human immunodeficiency virus type 1 reverse transcriptase (Human immunodeficiency virus 1, UniProt Q72547); assay: Equilibrium binding constant at the active site of HIV-1 reverse transcriptase

Row | Efficiency [1] | Kpol [2] | Kd [3] | SMILES
1 | 0.031 µM⁻¹ s⁻¹ | 0.95 s⁻¹ | 31 µM | Nc1nc(=O)n([C@@H]2C=C[C@H](COP(=O)(O)OP(=O)(O)OP(=O)(O)O)O2)cc1F
2 | 0.0013 µM⁻¹ s⁻¹ | 0.019 s⁻¹ | 15 µM | Nc1ccn([C@@H]2CS[C@H](COP(=O)(O)OP(=O)(O)OP(=O)(O)O)O2)c(=O)n1 [LAMIVUDINE TRIPHOSPHATE]
3 | 0.0033 µM⁻¹ s⁻¹ | 0.039 s⁻¹ | 12 µM | Nc1nc(=O)n([C@@H]2CS[C@H](COP(=O)(O)OP(=O)(O)OP(=O)(O)O)O2)cc1F [EMTRICITABINE 5'-TRIPHOSPHATE]
4 | 0.0023 µM⁻¹ s⁻¹ | 0.15 s⁻¹ | 64 µM | Nc1nc(=O)n([C@H]2O[C@@H](COP(=O)(O)OP(=O)(O)OP(=O)(O)O)C=C2F)cc1F
5 | 0.0086 µM⁻¹ s⁻¹ | 0.16 s⁻¹ | 18 µM | Nc1ccn([C@@H]2C=C[C@H](COP(=O)(O)OP(=O)(O)OP(=O)(O)O)O2)c(=O)n1
